The record followed here is publication PMC7646200 (Xenobiotica; the fate of foreign compounds in biological …, 2020).

Series [1] is described as follows: Sulfonation of 7-hydroxycoumarin derivatives by pig liver cytosol. To be noted: female, pig, liver cytosol, pH 7.4.
In another series the test system is pig liver cytosol. The series is described as above. To be noted: pig liver cytosol; value (95 % confidence interval).
A further series concerns sheep liver cytosol. The experiment in a line: Sulfonation of 7-hydroxycoumarin derivatives by sheep liver cytosol. To be noted: sheep liver cytosol; value (95 % confidence interval).
Experiment in series [2]: as above
To be noted: female, sheep, liver cytosol, pH 7.4.

The subject of the next series is rat liver cytosol. The experiment in a line: Sulfonation of 7-hydroxycoumarin derivatives by rat liver cytosol. To be noted: rat liver cytosol; for Vmax: value (95 % confidence interval); for sulfonation efficiency, intrinsic clearance (Vmax/Km): rank among species.
The nature of series [3]: Sulfonation of 7-hydroxycoumarin derivatives by dog liver cytosol. To be noted: both, Beagle, dog, liver cytosol, pH 7.4.
For series [4], the system named is dog liver cytosol. The description is as above. To be noted: for Vmax: value (95 % confidence interval); for intrinsic clearance (Vmax/Km): rank among species; for intrinsic clearance relative to the highest intrinsic clearance value: dog cytosol, highest value = 1 by rat cytosol.
Series [5] concerns dog liver cytosol.
In series [6] the test system is mouse liver cytosol. To be noted: pH 7.4.
Series [7] concerns mouse liver cytosol. In words: Sulfonation of 7-hydroxycoumarin derivatives by mouse liver cytosol. To be noted: for Vmax: mouse liver cytosol, value (95 % confidence interval); for sulfonation rate: 10 μM substrate.
Series [8] can be described thus: Sulfonation of 7-hydroxycoumarin derivatives by rabbit liver cytosol. To be noted: female, Dutch belted, rabbit, liver cytosol, pH 7.4.
The next series concerns rabbit liver cytosol. The description is as above. To be noted: rabbit liver cytosol; for Vmax: value (95 % confidence interval).
In a further series the test system is human liver cytosol. In words: Sulfonation of 7-hydroxycoumarin derivatives by human liver cytosol. To be noted: human liver cytosol; value (95 % confidence interval).
Experiment in series [9]: as above
To be noted: male, human, liver cytosol, pH 7.4.

The next series is described as follows: in vitro. To be noted: male, Wistar, rat, pH 7.4.
The nature of series [10]: Sulfonation of 7-hydroxycoumarin derivatives by rat liver cytosol. To be noted: male, Wistar, rat, pH 7.4.
The nature of series [11]: Sulfonation of 7-hydroxycoumarin derivatives by mouse liver cytosol. To be noted: DBA/2N/Kuo, mouse, pH 7.4.
The test system of series [12] is liver cytosol of human, rat, mouse, rabbit, dog, pig and sheep. It counts as in vitro ADME. To be noted: for sulfonation rate: 10 μM substrate, compared among derivatives over all species.

SMILES strings stand for the structures. “Also recorded” adds a separate entry of the source. Where two headings read alike, the source gives them in different places.

For `COc1cc2ccc(=O)oc2cc1O` [compound 3, 6-methoxy-7-hydroxycoumarin], the Km – broadly, the substrate concentration at which the rate is half of its maximum – is 0.11 µM in [1]; 0.13 µM in series [2]; 0.22 µM in [3]; “no MM” in the series with mouse liver cytosol [6]; 0.99 µM in [8]; 3.5 µM in series [9]. The Km in the series “in vitro” turned out to be 0.65 µM. Further, the Vmax was 15 (10–20) nmol/(min * g protein) in the series with pig liver cytosol; 260 (240–290) nmol/(min * g protein) in the series with sheep liver cytosol; 540 (510–570) nmol/(min * g protein) in the series with rat liver cytosol; 420 (390–450) nmol/(min * g protein) in the series with dog liver cytosol [4] (dog liver cytosol); “No MM” with mouse liver cytosol [7]; 160 (110–220) nmol/(min * g protein) in the series with rabbit liver cytosol. The Vmax in the series with human liver cytosol was 155 (6–300) nmol/(min * g protein). Moreover, in the series with dog liver cytosol [5], the “intrinsic clearance (Vmax/Km)” value is “highest”.
Consider `CN(C)c1ccc(-c2cc3ccc(O)cc3oc2=O)cc1` [compound 12, 3-(4-dimethylaminophenyl)-7-hydroxycoumarin], for which the Km in series [1] was 2.8 µM; in series [2] it was 0.89 µM; in series [10], 0.67 µM; in series [3], 0.44 µM; in [11] it was 0.49 µM; in series [8] it was 0.67 µM. The Km in [9] was found to be 0.39 µM. Further, the Vmax with pig liver cytosol is listed as 210 (140–290) nmol/(min * g protein); in the series on sheep liver cytosol, 440 (360–570) nmol/(min * g protein); with rat liver cytosol it was 520 (280–790) nmol/(min * g protein); in the series on dog liver cytosol [4] (dog liver cytosol) it was 600 (330–970) nmol/(min * g protein); in the series with mouse liver cytosol [7], 230 (64–540) nmol/(min * g protein); in the series on rabbit liver cytosol, 290 (90–560) nmol/(min * g protein). The Vmax in the series with human liver cytosol is listed as 180 (75–320) nmol/(min * g protein). The “intrinsic clearance (Vmax/Km)” value with dog liver cytosol [4] (dog liver cytosol) is reported as “highest”. Further, the sulfonation rate entry in [12] is “highest sulfonation rates”. In addition, the “intrinsic clearance (Vmax/Km), similarity between species” value in series [12] (compared with other 7-hydroxycoumarin derivatives) was “more similar between species”.
Consider `Cc1c(C)c2ccc(O)c(C)c2oc1=O` [compound 7, 3,4,8-trimethyl-7-hydroxycoumarin], for which the Km in series [1] worked out at 2.1 µM; in series [2] it was 0.71 µM; in series [10] (liver cytosol), 0.8 µM; in series [3], 4.3 µM; in [11] (liver cytosol) it was 0.11 µM; in series [9] it was 0.65 µM. The Vmax in the series on pig liver cytosol is listed as 59 (28–91) nmol/(min * g protein); with sheep liver cytosol, 300 (250–350) nmol/(min * g protein); with rat liver cytosol, 440 (170–710) nmol/(min * g protein); with dog liver cytosol [4] (dog liver cytosol) it was 1300 (0–5200) nmol/(min * g protein); in the series with mouse liver cytosol [7], 11 (6.8–14) nmol/(min * g protein); in the series on rabbit liver cytosol it was “No MM”. Also, the Vmax with human liver cytosol was 65 (54–76) nmol/(min * g protein). In addition, the “sulfonation efficiency, intrinsic clearance (Vmax/Km)” value (shortened to “sulfonation efficiency”) in the series on rat liver cytosol was “efficiently”. For the same compound, the sulfonation rate entry in the series with mouse liver cytosol [7] (male mouse liver cytosol) was “Slow”.
Turning to `O=c1ccc2ccc(O)cc2o1` [compound 1, 7-hydroxycoumarin, reference compound], the Km was determined as 4.3 µM in [1]; 0.41 µM in series [2]; 0.18 µM in series [10] (liver cytosol); 0.27 µM in series [3]; 1.7 µM in series [8]; 1.9 µM in series [9]. Also, the Vmax is 65 (29–100) nmol/(min * g protein) in the series on pig liver cytosol; 250 (200–310) nmol/(min * g protein) in the series with sheep liver cytosol; 410 (360–460) nmol/(min * g protein) in the series with rat liver cytosol; 380 (330–440) nmol/(min * g protein) with dog liver cytosol [4] (dog liver cytosol); 260 (210–320) nmol/(min * g protein) with mouse liver cytosol [7]; 200 (100–310) nmol/(min * g protein) in the series with rabbit liver cytosol. Besides, the Vmax with human liver cytosol is 84 (26–140) nmol/(min * g protein). Besides, the “sulfonation efficiency” value in the series with rat liver cytosol is “efficiently; also recorded: highest intrinsic clearance”. Moreover, the sulfonation rate result in the series on mouse liver cytosol [7] (female mouse liver cytosol) and in the series with mouse liver cytosol [7] (male mouse liver cytosol) was “Slow” in each case.
Turning to `Cc1ccc(-c2cc3ccc(O)cc3oc2=O)cc1` [compound 8, 3-(4-methylphenyl)-7-hydroxycoumarin], the Km in series [1] was 2.8 µM; in [2] it was 5.3 µM; in series [10], 0.36 µM; in series [3], 0.17 µM; in series [8] it was 7.3 µM; in [9], 0.27 µM. Besides, the Vmax is 12 (2–22) nmol/(min * g protein) with pig liver cytosol; 154 (83–230) nmol/(min * g protein) in the series on sheep liver cytosol; 170 (92–260) nmol/(min * g protein) in the series on rat liver cytosol; 56 (38–77) nmol/(min * g protein) in the series on dog liver cytosol [4] (dog liver cytosol); 26 (16–36) nmol/(min * g protein) with mouse liver cytosol [7]; 310 (35–580) nmol/(min * g protein) in the series with rabbit liver cytosol. In the series with human liver cytosol, the Vmax was 6.5 (1.6–36) nmol/(min * g protein). In the series on rat liver cytosol, the “sulfonation efficiency” value is “efficiently”. Besides, the sulfonation rate entry with rabbit liver cytosol (10 μM substrate) is reported as “Slow”; in [12], “highest sulfonation rates”.
Turning to `CCc1c(C)c2ccc(O)cc2oc1=O` [compound 5, 3-ethyl-4-methyl-7-hydroxycoumarin], the Km in series [1] was 1.5 µM; in [2], 1.6 µM; in [3], 0.45 µM; in series [11] (liver cytosol), 0.11 µM; in series [8], 1.3 µM; in [9] it was 2.1 µM. In addition, the Vmax in the series on pig liver cytosol was 26 (12–40) nmol/(min * g protein); in the series on sheep liver cytosol, 340 (220–460) nmol/(min * g protein); in the series with rat liver cytosol it was “No MM”; with dog liver cytosol [4] (dog liver cytosol), 360 (260–460) nmol/(min * g protein); in the series with mouse liver cytosol [7], 5.3 (3.8–6.8) nmol/(min * g protein); with rabbit liver cytosol it was 58 (21–95) nmol/(min * g protein). Further, the Vmax with human liver cytosol is 97 (76–120) nmol/(min * g protein). The “intrinsic clearance (Vmax/Km)” value in the series with dog liver cytosol [4] (dog liver cytosol) is reported as “highest”. In addition, the sulfonation rate result with mouse liver cytosol [7] (male mouse liver cytosol) is “Slow”.
`CCc1c(C)c2ccc(O)c(C)c2oc1=O` [compound 6, 3-ethyl-4,8-dimethyl-7-hydroxycoumarin]: the Km in [1] turned out to be 1.8 µM; in series [2], 0.48 µM; in series [10] (liver cytosol) it was 0.99 µM; in series [3], 0.38 µM; in series [11] (liver cytosol) it was 0.14 µM; in series [8], 1.7 µM. The Michaelis-Menten constant (Km) in series [9] is 0.51 µM. Also, the Vmax is 46 (22–69) nmol/(min * g protein) in the series on pig liver cytosol; 280 (190–370) nmol/(min * g protein) in the series with sheep liver cytosol; 130 (73–180) nmol/(min * g protein) in the series with rat liver cytosol; 630 (280–980) nmol/(min * g protein) in the series with dog liver cytosol [4] (dog liver cytosol); 14 (11–17) nmol/(min * g protein) in the series with mouse liver cytosol [7]; 280 (200–350) nmol/(min * g protein) in the series on rabbit liver cytosol. Moreover, the Vmax in the series with human liver cytosol is reported as 99 (74–130) nmol/(min * g protein). The “intrinsic clearance relative to the highest intrinsic clearance value” in the series on dog liver cytosol [4] is given as greater than 70%. Besides, the sulfonation rate result in the series on dog liver cytosol [4] (dog liver cytosol, 10 μM substrate) is listed as “Slow”. Further, in the series on dog liver cytosol [4] (dog liver cytosol), the “intrinsic clearance (Vmax/Km)” value is “highest”.
Turning to `O=c1oc2cc(O)ccc2cc1-c1ccc(O)cc1` [compound 9, 3-(4-hydroxyphenyl)-7-hydroxycoumarin], the Vmax is given as 41 (26–56) nmol/(min * g protein) in the series on sheep liver cytosol, 88 (65–120) nmol/(min * g protein) with dog liver cytosol [4] (dog liver cytosol), 160 (130–190) nmol/(min * g protein) with mouse liver cytosol [7] and 45 (30–62) nmol/(min * g protein) with rabbit liver cytosol. The Michaelis-Menten constant (Km) in [2] came out at 1.27 µM; in [3], 0.051 µM; in series [11] it was 0.46 µM; in series [8], 0.95 µM. In addition, the sulfonation rate result in the series on rat liver cytosol (10 μM substrate) is on record as “Slow”. The “intrinsic clearance relative to the highest intrinsic clearance value” in the series with dog liver cytosol [4] is listed as greater than 70%. The “intrinsic clearance (Vmax/Km)” value in the series on dog liver cytosol [4] (dog liver cytosol) is “highest”.
